Here are results for seven compounds from ChEMBL document CHEMBL5500349, “Discovery of ganoderic acid A (GAA) PROTACs as MDM2 protein degraders for the treatment of breast cancer” (Eur J Med Chem, 2024).

The source made the active and inactive calls. No cut-off for these calls is given here.

In series [1] the target is T1, von Hippel-Lindau disease tumor suppressor/E3 ubiquitin-protein ligase Mdm2 (Homo sapiens, UniProt Q00987+P40337). In words: Protac activity at VHL/MDM2 in human MCF7 cells assessed as reduction in MDM2 protein level at 100 uM after 48 hrs by Western blotting analysis. The format is cell-based. Background: Immunoblotting shows a protein as a band on a membrane.
Target sequence in this assay (P40337 whole entry, looked up): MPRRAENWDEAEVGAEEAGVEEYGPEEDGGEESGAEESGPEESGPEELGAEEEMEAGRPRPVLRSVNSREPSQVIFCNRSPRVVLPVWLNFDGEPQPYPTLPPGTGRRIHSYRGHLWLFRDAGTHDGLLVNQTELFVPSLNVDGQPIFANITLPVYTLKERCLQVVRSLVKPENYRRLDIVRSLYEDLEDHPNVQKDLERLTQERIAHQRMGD
Target sequence in this assay (Q00987 whole entry, looked up): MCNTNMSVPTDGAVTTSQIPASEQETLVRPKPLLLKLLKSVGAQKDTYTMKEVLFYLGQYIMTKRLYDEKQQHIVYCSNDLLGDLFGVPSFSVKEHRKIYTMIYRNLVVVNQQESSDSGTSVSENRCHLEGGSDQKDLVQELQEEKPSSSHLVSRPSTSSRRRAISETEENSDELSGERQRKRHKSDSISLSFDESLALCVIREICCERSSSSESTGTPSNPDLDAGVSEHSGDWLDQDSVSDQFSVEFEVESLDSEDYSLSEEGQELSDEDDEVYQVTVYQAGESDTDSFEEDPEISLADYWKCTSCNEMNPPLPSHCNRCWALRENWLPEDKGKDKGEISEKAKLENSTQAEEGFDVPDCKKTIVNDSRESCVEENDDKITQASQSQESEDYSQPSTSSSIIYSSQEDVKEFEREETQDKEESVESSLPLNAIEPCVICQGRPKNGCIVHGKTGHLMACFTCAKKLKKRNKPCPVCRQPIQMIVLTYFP
The target in series [2] is T1, von Hippel-Lindau disease tumor suppressor/E3 ubiquitin-protein ligase Mdm2. In words: Protac activity at VHL/MDM2 in human MDA-MB-231 cells assessed as reduction in MDM2 protein level at 80 uM after 48 hrs by Western blotting analysis. Format: cell-based.
Target sequence in this assay (P40337 whole entry, looked up): as the sequence (P40337 whole entry, looked up) above
Target sequence in this assay (Q00987 whole entry, looked up): as the sequence (Q00987 whole entry, looked up) above
Series [3] relates to MCF7. Nature of the series: Antiproliferative activity against human MCF7 cells assessed as cell viability at 100 uM incubated for 48 to 72 hrs by MTT assay. The format is functional. The settings on record: time 48-72 hrs, read-out: Activity. In general terms: Tetrazolium assays rely on reduction of a dye to a coloured formazan, in cell work by metabolically active cells.
For series [4], the system named is MDA-MB-231. Nature of the series: Antiproliferative activity against human MDA-MB-231 cells assessed as cell viability at 100 uM incubated for 48 to 72 hrs by MTT assay. Format: functional. The settings on record: time 48-72 hrs, read-out: Activity.
Series [5] relates to SJSA-1. Nature of the series: Antiproliferative activity against human SJSA-1 cells assessed as cell viability at 100 uM incubated for 48 to 72 hrs by MTT assay. Format: functional. The settings on record: time 48-72 hrs, read-out: Activity.
Series [6] deals with HepG2. Nature of the series: Antiproliferative activity against human HepG2 cells assessed as cell viability at 100 uM incubated for 48 to 72 hrs by MTT assay. The settings on record: time 48-72 hrs, read-out: Activity. The format is functional.
Series [7] can be described thus: Cytotoxicity against mouse HT-22 cells assessed as cell viability at 100 uM incubated for 48 to 72 hrs by MTT assay. The format is toxicity, cell-based. The settings on record: time 48-72 hrs, read-out: Activity.
The target in series [8] is T1, von Hippel-Lindau disease tumor suppressor/E3 ubiquitin-protein ligase Mdm2. In words: Protac activity at VHL/MDM2 in human MCF7 cells assessed as reduction in MDM2 protein level after 48 hrs by Western blotting analysis. Format: cell-based.
Series [9] shares this target. Nature of the series: Protac activity at VHL/MDM2 in human MCF7 cells assessed as upregulation of p53 level at 75 to 105 uM after 48 hrs by Western blotting analysis. The format is cell-based. The settings on record: dose 75-105 µM.
Target sequence in this assay (P40337 whole entry, looked up): as the sequence (P40337 whole entry, looked up) above
Target sequence in this assay (Q00987 whole entry, looked up): as the sequence (Q00987 whole entry, looked up) above
The target is the same in series [10]. In words: Protac activity at VHL/MDM2 in human MCF7 cells assessed as upregulation of p21 level at 75 to 105 uM after 48 hrs by Western blotting analysis. Format: cell-based. The settings on record: dose 75-105 µM.
Target sequence in this assay (P40337 whole entry, looked up): as the sequence (P40337 whole entry, looked up) above
Target sequence in this assay (Q00987 whole entry, looked up): as the sequence (Q00987 whole entry, looked up) above
The target is the same in series [11]. Nature of the series: Protac activity at VHL/MDM2 in human MCF7 cells assessed as reduction in MDM2 protein level at 100 uM pretreated with MG-132 for 2 hrs followed by compound addition and measured after 48 hrs by Western blotting analysis. The format is cell-based.
Target sequence in this assay (P40337 whole entry, looked up): as the sequence (P40337 whole entry, looked up) above
Target sequence in this assay (Q00987 whole entry, looked up): as the sequence (Q00987 whole entry, looked up) above
The target in series [12] is E3 ubiquitin-protein ligase Mdm2 (Homo sapiens, UniProt Q00987). In words: Binding affinity to MDM2 (unknown origin) by SPR assay. For orientation: SPR reads the build-up and loss of mass on a sensor chip optically.
Sequence of E3 ubiquitin-protein ligase Mdm2 (Q00987 whole entry): as the sequence (Q00987 whole entry, looked up) above

Take `CC(=O)N[C@H](C(=O)N1C[C@H](O)C[C@H]1C(=O)N[C@@H](C)c1ccc(-c2scnc2C)cc1)C(C)(C)C`: the outcome in [1] and in series [2] was inactive.

With `Cc1ncsc1-c1ccc([C@H](C)NC(=O)[C@@H]2C[C@@H](O)CN2C(=O)[C@@H](NC(=O)CCCCc2cn(CCOCCOCCNC(=O)[C@H](C)CC(=O)C[C@@H](C)[C@H]3C[C@H](O)[C@@]4(C)C5=C(C(=O)C[C@]34C)[C@@]3(C)CCC(=O)C(C)(C)[C@@H]3C[C@@H]5O)nn2)C(C)(C)C)cc1`, the viability at 100 µM in series [3] came out at 41.4%; in series [4] it was 31.6%; in series [5], 77.1%; in [6], 86.8%; in series [7], 95.9%.

With `Cc1ncsc1-c1ccc([C@H](C)NC(=O)[C@@H]2C[C@@H](O)CN2C(=O)[C@@H](NC(=O)CCCCc2cn(CCOCCOCCOCCNC(=O)[C@H](C)CC(=O)C[C@@H](C)[C@H]3C[C@H](O)[C@@]4(C)C5=C(C(=O)C[C@]34C)[C@@]3(C)CCC(=O)C(C)(C)[C@@H]3C[C@@H]5O)nn2)C(C)(C)C)cc1`, the viability at 100 µM in series [3] was determined as 24.9%; in [4] it was 35.4%; in series [5], 69.6%; in series [6], 90.2%; in [7] it was 91.8%. Moreover, the Activity entry in [8] was “Dose-Dependent Effect”. In series [8], the DC50 stood at 100 µM. Also, the outcome in series [9] and in [10] was Active. The outcome in series [11] was inactive. The Kd (in general, a measure of binding affinity in units of concentration) in series [12] came out at 32.4 µM.

For `Cc1ncsc1-c1ccc([C@H](C)NC(=O)[C@@H]2C[C@@H](O)CN2C(=O)[C@@H](NC(=O)CCCc2cn(CCOCCOCCOCCOCCNC(=O)[C@H](C)CC(=O)C[C@@H](C)[C@H]3C[C@H](O)[C@@]4(C)C5=C(C(=O)C[C@]34C)[C@@]3(C)CCC(=O)C(C)(C)[C@@H]3C[C@@H]5O)nn2)C(C)(C)C)cc1`, the viability at 100 µM in series [3] was found to be 30.1%; in [4] it was 28.7%; in series [5], 61.7%; in [6] it was 94.8%; in series [7], 96.9%.

For `Cc1ncsc1-c1ccc([C@H](C)NC(=O)[C@@H]2C[C@@H](O)CN2C(=O)[C@@H](NC(=O)CCCc2cn(CCOCCOCCOCCNC(=O)[C@H](C)CC(=O)C[C@@H](C)[C@H]3C[C@H](O)[C@@]4(C)C5=C(C(=O)C[C@]34C)[C@@]3(C)CCC(=O)C(C)(C)[C@@H]3C[C@@H]5O)nn2)C(C)(C)C)cc1`, the viability at 100 µM was 42.7% in series [3]; 25.5% in series [4]; 61.8% in series [5]; 89.2% in series [6]; 90.2% in series [7].

Regarding `C[C@H](CC(=O)C[C@@H](C)[C@H]1C[C@H](O)[C@@]2(C)C3=C(C(=O)C[C@]12C)[C@@]1(C)CCC(=O)C(C)(C)[C@@H]1C[C@@H]3O)C(=O)NCCOCCOCCOCCOCCn1cc(CNc2cccc3c2C(=O)N(C2CCC(=O)NC2=O)C3=O)nn1` (some centres undefined), the viability at 100 µM in series [3] is 75.9%; in [4], 90.2%; in series [5], 83%; in [6] it was 130%; in [7], 91.9%.

Turning to `C[C@H](CC(=O)C[C@@H](C)[C@H]1C[C@H](O)[C@@]2(C)C3=C(C(=O)C[C@]12C)[C@@]1(C)CCC(=O)C(C)(C)[C@@H]1C[C@@H]3O)C(=O)O` [GANODERIC ACID A], the viability at 100 µM in series [3] amounted to 84.7%; in [4], 84.8%; in series [5], 98.9%; in series [6], 87.2%. For the same compound, the outcome in series [1] and in series [2] was inactive.
